Assay results reported in US20060264411A1, “Control of biofilm formation” (priority 2005, published 2006).

Experiments:
[1] = tested on: E. coli clinical strain UTI89; assay: Invasion of E. coli UTI89 into bladder epithelial cells; type: cell-based
Method: The effect of test compounds on bacterial invasion of E. coli clinical strain UTI89 was studied as described in Elsinghorst, et al. 1994, Methods Enzymol, 236:405-420; and Martinez et al., 2000, EMBO J., 19:2803-2812. Epithelial bladder cells were grown in plates. Asiatic acid, corosolic acid, or ursolic acid were added at concentrations of 10 μg/ml, 20 μg/ml, or 40 μg/ml to bacteria and epithelial cells for approximately 5, 15, 30, or 60 minutes with approximately 10^7 CFU of E. coli. Binding was assessed at time zero and invasion was assessed at approximately 5, 15, 30, or 60 minutes from completing the mixture of compound, bacteria, and epithelial cells. As a control ethanol was added to cells to a final concentration of 0.1%. The effect of bacterial viability and bacterial adherence during the infection period was evaluated according to the methods described in Martinez et al., 2000, EMBO J., 19:2803-2812.

[2] = tested on: E. coli clinical strain UTI89; assay: Biofilm formation inhibition, crystal violet, E. coli clinical strain UTI89; type: cell-based; details: Escherichia coli, 20 ug/ml, read-out: inhibited biofilm formation
Method: (§1) Biofilm inhibition experiments were conducted using an assay adapted from the reported protocol described in Pratt and Kolter, 1998, Molecular Microbiology, 30: 285-293; Li et al., 2001, J. Bacteriol., 183: 897-908. E. coli clinical strain UTI89 was grown in LB in 96 well plates at room temperature for one or two days without shaking. E. coli laboratory strain JM109 was grown in LB plus 0.2% glucose in 96 well plates at room temperature for one day without shaking. To quantify the biofilm mass, the suspension culture was poured out and the biofilm was washed three times with water. The biofilm was stained with 0.1% crystal violet for 20 minutes. The plates were then washed three times with water. OD reading at 540 nm was measured to quantify the biofilm mass at the bottom of the wells. Then 95% ethanol was added to dissolve the dye at the bottom and on the wall and the OD reading at 540 nm was measured to quantify the total biofilm mass. To study the overall effect of the compounds (3.6 mg/mL in 100% ethanol as stock solution), it was added with the inoculation and a time course of biofilm mass was measured. Appropriate amounts of 100% ethanol were added to each sample to eliminate the effect of solvent. Each condition had 3-4 replicates on each plate and was performed over multiple days.

[3] = tested on: P. aeruginosa strain PAO1; assay: Rotating disk reactor (RDR) biofilm test with and without tobramycin; type: cell-based, Pseudomonas aeruginosa; details: test compound 100 μg/ml 24 h; for Test Compound, log10 CFU: no tobramycin; for Tobramycin and Test Compound, log10 CFU: then tobramycin 100 μg/ml 2 h
Method: Biofilm formation of P. aeruginosa was evaluated using a standardized biofilm method with a rotating disk reactor (RDR). This method provides a model resembling the formation of biofilms in cystic fibrosis patients. The rotating disk reactor consists of a one-liter glass beaker fitted with a drain spout. The bottom of the vessel contains a magnetically driven rotor with six 1.27 cm diameter coupons constructed from polystyrene. The rotor consists of a star-head magnetic stir bar upon which a disk was affixed to hold the coupons. The vessel with the stir bar was placed on a stir plate and rotated to provide fluid shear. A nutrient solution (AB Trace Medium with 0.3 mM glucose, see Table 1 below for composition) was added through a stopper in the top of the reactor at a flow rate of 5 ml/min. The reactor volume was approximately 180 ml and varied slightly between reactors depending on the placement of the drain spout and the rotational speed of the rotor. At a volume of 180 ml, the residence time of the reactors was 36 minutes. The reactors were operated at room temperature (c.a. 26° C.).
For each test, two RDRs were operated in parallel with one receiving test compound and the other serving as an untreated control. The RDRs were sterilized by autoclave, then filled with sterile medium and inoculated with P. aeruginosa strain PAO1. The reactors were then incubated at room temperature in batch mode (no medium flow) for a period of 24 hours, after which the flow was initiated for a further 24 hour incubation. Test compounds were dissolved in 10 ml ethanol to achieve a concentration of 1.8 mg/ml. After the 48 hours of biofilm development described above, the 10 ml of ethanol containing the test compounds were added to the reactor to achieve a final concentration of approximately 50, 100, or 200 μg/ml. Control reactors received 10 ml of ethanol. The reactors were then incubated for an additional 24 hours in batch (no flow) mode. After this incubation period, the six coupons were removed from each reactor and placed in 12-well polystyrene tissue culture plates with wells containing either 2 ml of a 100 μg/ml tobramycin solution or 2 ml of phosphate-buffered saline (PBS). These plates were incubated at room temperature for two hours. The coupons were then rinsed by three transfers to plates containing 2 ml of fresh PBS. For each two RDR reactors run in parallel, four sets of three coupons were obtained: one set with no test compound treatment and no tobramycin treatment, one set with no test compound treatment and tobramycin treatment, one set treated with a test compound treatment and no tobramycin treatment, and one set treated with a test compound treatment and tobramycin. After rinsing, one coupon of each set of three was stained with a LIVE/DEAD® BacLight™ Bacterial Viability Kit (Molecular Probes, Eugene Oreg.) and imaged using epifluorescent microscopy. The remaining two coupons were placed in 10 ml of PBS and sonicated for five minutes to remove and disperse biofilm cells. The resulting bacterial suspensions were then serially diluted in PBS and plated on tryptic soy agar plates for enumeration of culturable bacteria. The plates were incubated for 24 hours at 37° C. before colony forming units (CFU) were determined.
The results are averages from experiments performed on three separate days for each test compound. The values reported are as log10 CFU.

E. coli UTI89[pCOMGFP] = assay: Biofilm pods / intracellular bacterial communities (IBC) in mouse bladders, confocal microscopy; type: in vivo, C3H/HeN mice; details: for reduction in biofilm pods or intracellular bacterial communities (IBC) in the bladders of mice as compared to the controls: experiment 1: 40 μg/ml intravesical, 30 min pre-incubation, 10^8 CFU, five hours
Method: The experiment was performed using the procedures described in Justice, S. et al., Differentiation and development pathways of uropathogenic Escherichia coli in urinary tract pathogenesis.PNAS, 2004, 101(5), p. 1333-1338. Briefly, E. coli UTI89[pCOMGFP] was prepared after retrieval from frozen stocks by inoculating in LB medium statically for approximately 20 hours. Cells were harvested and suspended in 1 ml of PBS. Cells were diluted to achieve approximately a 10^8 CFU or 10^7 CFU input into C3H/HeN mice (2 mice per group).
Mice were deprived of water for approximately two hours. In experiment 1, all mice were anesthetized with 0.15 cc ketamine cocktail. In experiment 2, all mice were anesthetized with isofluorane. In experiment 1, urine was dispelled from the bladders and approximately 40 μg/ml of test compound or an appropriate amount of ethanol as control was introduced into the bladders via catheterization of the urethra using a tubing coated tuberculin syringe. 30 minutes was allowed to elapse. In experiment 2, bladders were not pre-incubated with test compounds. Bladders were then expelled and an inoculum of 10^8 CFU (Experiment 1) or 10^7 CFU (Experiment 2) of E. coli containing 40 μg/ml of test compound or equivalent amount of ethanol as controls were introduced into the bladders as indicated above.
In experiment 1 five hours elapsed and in experiment 2 six hours elapsed, and then mice were anesthetized and sacrificed. The bladders were removed, bisected, stretched, and fixed in 3% paraformaldehyde for 1 hour at room temperature. Bladders were then permeabilized in 0.01% Triton/PBS for 10 minutes and counter stained with TOPRO3 (Molecular Probes) for 10 minutes for visualization by confocal microscopy. Bladders were mounted on Prolong antifade (Molecular Probes).

[4] = tested on: E. coli laboratory strain JM109; assay: Biofilm formation inhibition, crystal violet, E. coli laboratory strain JM109; type: cell-based; details: Escherichia coli, read-out: inhibited biofilm formation as compared to the controls
Method: as §1

[5] = Bladder concentrations in rats after oral dose; details: rat, in vivo; rats; 50 mg/kg oral, single bolus in 50% Labrasol; at 24 hours; read-out: concentration in the bladder
Method: Pharmacokinetic studies of asiatic acid and madecassic acid in rats were performed separately. Asiatic acid and madecassic acid were evaluated at 50 mg/kg (oral). Two animals were assigned to each group. Prior to dosing, a baseline blood sample was taken from each animal. At time zero, asiatic acid and madecassic acid, a single bolus dose in 50% Labrasol (Gattefosse) was given to each animal. Bladders were analyzed at 24 hours. Concentrations of both asiatic acid and madecassic acid in the bladder were approximately 30 μg/g at 24 hours.

bacterial invasion = assay: Bacterial invasion statement of Example 9; details: within 15 minutes of administration
cysB gene = details: examples of U.S. patent application Ser. No. 11/085,279; cited from earlier work
[6] = 40 μg/ml, 60 minutes, separate experiments (n=4-7)

| SMILES | reduced invasion of E. coli into bladder epithelial cells as compared to the controls ([1]; 20 μg/ml, 60 minutes, separate experiments (n=4)) | reduced invasion of E. coli into bladder epithelial cells as compared to the controls ([1]; 40 μg/ml, 5 minutes, time series, triplicate) | reduced invasion of E. coli into bladder epithelial cells as compared to the controls ([1]; 40 μg/ml, 15 minutes, time series, triplicate) | reduced invasion of E. coli into bladder epithelial cells as compared to the controls [1, 6] | reduced invasion of E. coli into bladder epithelial cells as compared to the controls ([1]; 40 μg/ml, 60 minutes, time series, triplicate) | inhibition at 20 µg/mL [2] | Test Compound, log10 CFU [3] | Tobramycin and Test Compound, log10 CFU [3] | reduction in biofilm pods or intracellular bacterial communities (IBC) in the bladders of mice as compared to the controls (E. coli UTI89[pCOMGFP]) | reduction in large biofilm pods or large IBC in the bladders of mice as compared to the controls (E. coli UTI89[pCOMGFP]; experiment 2: 40 μg/ml with inoculum, no pre-incubation, 10^7 CFU, six hours) | appearance of E. coli in mouse bladder, confocal microscopy image (FIG. 3) (E. coli UTI89[pCOMGFP]; mouse inoculated with E. coli UTI89 and compound, control shows an IBC (FIG. 2)) | inhibition at 5 µg/mL ([4]; JM 109, 5 ug/ml) | inhibition at 10 µg/mL ([4]; JM 109, 10 ug/ml) | concentration at 24 h [5] | bacterial invasion (in words) (bacterial invasion) | expression of a cysB gene in E. coli (cysB gene) |
| --- | --- | --- | --- | --- | --- | --- | --- | --- | --- | --- | --- | --- | --- | --- | --- | --- |
| C[C@H]1[C@H](C)CC[C@]2(C(=O)O)CC[C@]3(C)C(=CC[C@@H]4[C@@]5(C)C[C@@H](O)[C@H](O)C(C)(C)[C@@H]5CC[C@]43C)[C@H]12 [Corosolic acid, corosolic acid] | 65% | 10% | 70% | 90% | 90% | ~85% | 7.3 log10 CFU | 4.2 log10 CFU | 94% | ~60% | small collection of E coli | – | – | – | – | – |
| C[C@H]1[C@H](C)CC[C@]2(C(=O)O)CC[C@]3(C)C(=CC[C@@H]4[C@@]5(C)C[C@@H](O)[C@H](O)[C@@](C)(CO)[C@@H]5[C@H](O)C[C@]43C)[C@H]12 [Madecassic acid, madecassic acid] | – | – | – | – | – | – | 7.5 log10 CFU | 5.5 log10 CFU | – | – | – | ~60% | ~75% | ~30000 ng/g | significantly reduced bacterial invasion | – |
| C[C@H]1[C@H](C)CC[C@]2(C(=O)O)CC[C@]3(C)C(=CC[C@@H]4[C@@]5(C)CC[C@H](O)C(C)(C)[C@@H]5CC[C@]43C)[C@H]12 [ursolic acid] | – | – | – | 76% | – | – | – | – | 70% | – | – | – | – | – | – | modulate the expression of a cysB gene |
